Test results reported in the NIST ThermoML archive (doi:10.1016/j.jct.2013.04.017).

Assay: mn = molality of the nth substance listed, in mol/kg
Conditions: 101 kPa, Liquid, fixed-path interferometer

O=C(O)CC(O)(CC(=O)O)C(=O)O [citric acid] + O
speed of sound [m/s]
Conditions	288.15 K	293.15 K	298.15 K	303.15 K	308.15 K	313.15 K	318.15 K	323.15 K
m1 = 0.1003	1469.9	1485.9	1499.4	1510.9	1521	1529.8	1537.2	1542.6
m1 = 0.2504	1477.4	1492.5	1505.5	1516.2	1525.8	1533.9	1540.5	1545.9
m1 = 0.5006	1490.5	1504	1516.1	1525.7	1533.9	1541.2	1546.1	1550.7
m1 = 0.9988	1515	1526.4	1535.8	1543.3	1549.4	1554.9	1558.2	1561.1
m1 = 1.502	1538	1547.1	1554.4	1560.8	1565.6	1569.5	1572	1573.3
m1 = 2.023	1560.3	1567.1	1572.5	1576.7	1579.8	1582.2	1583.7	1582.6
m1 = 2.502	1578.8	1584.1	1587.9	1590.5	1592.4	1593.7	1593.9	1592.9
m1 = 3.006	1595.4	1598.9	1603	1603	1603.6	1603.8	1599.9	1598.2
m1 = 3.505	1613.1	1615.3	1616.7	1615.6	1615.2	1614.2	1612.6	1609.7
m1 = 3.998	1626.2	1628.7	1629.1	1626.7	1622.6	1621	1618.9	1615.4
m1 = 4.506	1640.7	1636.7	1641	1637.8	1635.5	1632.7	1629.6	1625.3
m1 = 4.997	1654.7	1653.3	1651.3	1648.6	1640.1	1635.7	1632.1	1626.1
